We go through 28 molecules from patent US20130116231A1, “TYROSINE KINASE INHIBITORS” (Merck Sharp & Dohme Corp., priority 2010, published 2013).

Molecules are shown by their SMILES.

For the assay, the target named is T1, human c-Met (Homo sapiens, UniProt P08581).
T1 construct: Recombinant GST-tagged cytosolic domains of human c-Met; 6xHis; made in house; host or cells: Sf9 or Sf21 insect cells (baculovirus)
T1 sequence (P08581 956-1390 limits assumed): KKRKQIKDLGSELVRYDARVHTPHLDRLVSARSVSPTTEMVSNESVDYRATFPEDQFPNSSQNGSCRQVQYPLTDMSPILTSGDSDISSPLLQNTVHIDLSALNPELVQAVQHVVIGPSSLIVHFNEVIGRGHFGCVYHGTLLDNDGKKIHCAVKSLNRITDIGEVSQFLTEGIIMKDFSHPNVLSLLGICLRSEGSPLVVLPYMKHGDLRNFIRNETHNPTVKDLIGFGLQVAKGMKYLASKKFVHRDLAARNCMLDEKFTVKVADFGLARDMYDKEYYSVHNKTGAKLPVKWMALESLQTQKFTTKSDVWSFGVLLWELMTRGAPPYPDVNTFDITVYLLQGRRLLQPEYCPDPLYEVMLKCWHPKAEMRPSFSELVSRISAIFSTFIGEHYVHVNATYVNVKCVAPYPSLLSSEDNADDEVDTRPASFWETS
Description: in vitro kinase assay (homogeneous time-resolved tyrosine kinase assay, METKA). It counts as biochemical. Particulars: recombinant GST-tagged c-Met cytosolic domain, HTRF, 50 μM MgATP; read-out: Biological Activity (METKA IC50) Activity Code. The source says:
Recombinant GST-tagged cytosolic domains of human c-Met and other receptor tyrosine kinases including mouse c-Met, human Ron, KDR, IGFR, EGFR, FGFR, Mer, TrkA and Tie2 are used to determine whether the compounds of the instant invention modulate the enzymatic activities of these kinases.
Soluble recombinant GST-tagged cytosolic domains of c-Met and other receptor tyrosine kinases are expressed in a baculovirus system (Pharmingen) according to a protocol recommended by the manufacturer. The c-DNA encoding each cytosolic domain is subcloned into a baculovirus expression vector (pGcGHLT-A, B or C, Pharmingen) containing an in frame 6× histidine tag and a GST tag. The resulting plasmid construct and BaculoGold baculovirus DNA (Pharmingen) are used to co-transfect Sf9 or Sf21 insect cells. After confirming expression of GST-tagged kinase fusion, a high titer recombinant baculovirus stock is produced, expression conditions are optimized, and a scaled up expression of rat KDR-GST fusion is performed. The fusion kinase is then purified from the insect cell lysate by affinity chromatography using glutathione agarose (Pharmingen). The purified protein is dialyzed against 50% glycerol, 2 mM DTT, 50 mM Tris-HCl (pH 7.4) and stored at −20° C. The protein concentrations of the fusion proteins are determined using Coomassie Plus Protein Assay (Pierce) with BSA as standard.
The kinase activities of c-Met and other kinases are measured using a modified version of the homogeneous time-resolved tyrosine kinase assay described by Park et al. (1999, Anal. Biochem. 269:94-104).
The procedure for determining the potency of a compound to inhibit c-Met kinase comprises the following steps: • 1. Prepare 3-fold serial diluted compound solutions in 100% dimethyl sulfoxide (DMSO) at 20× of the desired final concentrations in a 96 well plate. • 2. Prepare a master reaction mix containing 6.67 mM MgCl2, 133.3 mM NaCl, 66.7 mM Tris-HCl (pH 7.4), 0.13 mg/ml BSA, 2.67 mM dithiothreitol, 0.27 nM recombinant c-Met and 666.7 nM biotinylated synthetic peptide substrate (biotin-ahx-EQEDEPEGDYFEWLE-CONH2) (SEQ.ID.NO.:1). • 3. In a black assay plate, add 2.5 μl of compound solution (or DMSO) and 37.5 μl of master reaction mix per well. Initiate the kinase reaction by adding 10 μl of 0.25 mM MgATP per well. Allow the reactions to proceed for 80 min at room temperature. The final conditions for the reaction are 0.2 nM c-Met, 0.5 μM substrate, 50 μM MgATP, […], 100 mM NaCl, 2 mM DTT, 0.1 mg/ml BSA, 50 mM Tris (pH 7.4) and 5% DMSO. • 4. Stop the kinase reaction with 50 μl of Stop/Detection buffer containing 10 mM EDTA, 25 mM HEPES, 0.1% TRITON X-100, 0.126 μg/ml Eu-chelate labeled anti-phosphotyrosine antibody PY20 (cat. #AD0067, PerkinElmer) and 45 μg/ml Streptavidin-allophycocyanin conjugate (cat. #PJ25S, Prozyme). • 5. Read HTRF signals on a Victor reader (PerkinElmer) in HTRF mode after 60 min. • 6. IC50 is determined by fitting the observed relationship between compound concentration and HTRF signal with a 4-parameter logistic equation. Essentially the same procedure was used to determine the potency of compounds to inhibit mouse c-Met, human Ron, KDR, IGFR, EGFR, FGFR, Mer, TrkA and Tie2 except that the concentration of enzyme varied in individual assays (0.2 nM mouse c-Met; 2.5 nM Ron, 8 nM KDR; 0.24 nM IGFR; 0.24 nM EGFR; 0.14 nM FGFR; 16 nM Mer; 8 nM TrkA; 8 nM Tie2).
In general terms: TR-FRET usually uses a lanthanide donor and a delayed reading to cut background.
Regarding `CCOc1cnc2ccc(OCc3nn(-c4cc(F)cc(C#N)c4)ccc3=O)cc2c1` [Example 44, 3-[3-{[(3-ethoxyquinolin-6-yl)oxy]methyl}-4-oxopyridazin-1(4H)-yl]-5-fluorobenzonitrile], the IC50 is less than 100 nM.

As to `CCOc1cnc2ccc(OCc3nn(-c4cc(Cl)cc(C#N)c4)ccc3=O)cc2c1` [Example 45, 3-chloro-5-[3-{[(3-ethoxyquinolin-6-yl)oxy]methyl}-4-oxopyridazin-1(4H)-yl]benzonitrile], the IC50 was less than 100 nM.

Consider `CCOc1cnc2ccc(OCc3nn(-c4ccc(F)c(F)c4)ccc3=O)cc2c1` [Example 46, 1-(3,4-difluorophenyl)-3-{[(3-ethoxyquinolin-6-yl)oxy]methyl}pyridazin-4(1H)-one], for which the IC50 is less than 100 nM.

As for `CCOc1cnc2ccc(OCc3nn(-c4cc(F)cc(F)c4)ccc3=O)cc2c1` [Example 47, 1-(3,5-difluorophenyl)-3-{[(3-ethoxyquinolin-6-yl)oxy]methyl}pyridazin-4(1H)-one], the 50% inhibitory concentration (IC50) was less than 100 nM.

On to `COc1ccnc2ccc(OCc3nn(-c4cnn(C)c4)ccc3=O)cc12` [Example 48, 3-{[(4-Methoxyquinolin-6-yl)oxy]methyl}-1-(1-methyl-1H-pyrazol-4-yl)pyridazin-4(1H)-one], for which the IC50 is less than 100 nM.

Take `COc1ccc2cc(OCc3nn(-c4cnn(C)c4)ccc3=O)ccc2n1` [Example 49, 3-{[(2-methoxyquinolin-6-yl)oxy]methyl}-1-(1-methyl-1H-pyrazol-4-yl)pyridazin-4(1H)-one]: the IC50 was in the range of 100 to 1000 nM.

Take `Cc1ccnc2ccc(OCc3nn(-c4cnn(C)c4)ccc3=O)cc12` [Example 50, 1-(1-methyl-1H-pyrazol-4-yl)-3-{[(4-methylquinolin-6-yl)oxy]methyl}pyridazin-4(1H)-one]: the half-maximal inhibitory concentration (IC50) is less than 100 nM.

Regarding `NC(=O)c1cccc(-n2ccc(=O)c(COc3ccc4ncccc4c3)n2)c1` [Example 51, 3-{4-Oxo-3-[(quinolin-6-yloxy)methyl]pyridazin-1(4H)-yl}benzamide], the IC50 is less than 100 nM.

As for `COCCOc1cnc2ccc(OCc3nn(-c4cccc(C(=O)N(C)C)c4)ccc3=O)cc2c1` [Example 52, 3-[3-({[3-(2-methoxyethoxy)quinolin-6-yl]oxy}methyl)-4-oxopyridazin-1(4H)-yl]-N,N-dimethylbenzamide], the IC50 is 1000 to 3000 nM.

Regarding `Cn1cc(-n2ccc(=O)c(CCc3ccc4ncccc4c3)n2)cn1` [Example 53, 1-(1-Methyl-1H-pyrazol-4-yl)-3-[2-(quinolin-6-yl)ethyl]pyridazin-4(1H)-one], the IC50 was less than 100 nM.

`Cn1cc(-n2ccc(=O)c(CCc3ccnc4ccccc34)n2)cn1` [Example 54, 1-(1-methyl-1H-pyrazol-4-yl)-3-(2-quinolin-4-ylethyl)pyridazin-4(1H)-one]: the IC50 lay within 1000 to 3000 nM.

Take `Cn1cc(-n2ccc(=O)c(CCc3ccnc4[nH]ccc34)n2)cn1` [Example 55, 1-(1-methyl-1H-pyrazol-4-yl)-3-[2-(1H-pyrrolo[2,3-b]pyridin-4-yl)ethyl]pyridazin-4(1H)-one]: the IC50 lay in the range of 1000 to 3000 nM.

In the case of `COC(=O)c1ccc(CCc2nn(-c3cnn(C)c3)ccc2=O)cc1` [Example 56, methyl 4-{2-[1-(1-methyl-1H-pyrazol-4-yl)-4-oxo-1,4-dihydropyridazin-3-yl]ethyl}benzoate], the IC50 was 1000 to 3000 nM.

Take `COCCOc1cnc2ccc(CCc3nn(-c4cnn(C)c4)ccc3=O)cc2c1` [Example 57, 3-{2-[3-(2-methoxyethoxy)quinolin-6-yl]ethyl}-1-(1-methyl-1H-pyrazol-4-yl)pyridazin-4(1H)-one]: the IC50 is less than 100 nM.

As for `CCOc1cnc2ccc(CCc3nn(-c4cnn(C)c4)ccc3=O)cc2c1` [Example 58, 3-[2-(3-ethoxyquinolin-6-yl)ethyl]-1-(1-methyl-1H-pyrazol-4-yl)pyridazin-4(1H)-one], the IC50 was less than 100 nM.

Consider `COc1ccnc2ccc(CCc3nn(-c4cnn(C)c4)ccc3=O)cc12` [Example 59, 3-[2-(4-methoxyquinolin-6-yl)ethyl]-1-(1-methyl-1H-pyrazol-4-yl)pyridazin-4(1H)-one], for which the IC50 was less than 100 nM.

Consider `Cn1cc(-n2ccc(=O)c(CCc3ccc4nccnc4c3)n2)cn1` [Example 60, 1-(1-Methyl-1H-pyrazol-4-yl)-3-[2-(quinoxalin-6-yl)ethyl]pyridazin-4(1H)-one], for which the IC50 was 1000 to 3000 nM.

Turning to `Cn1cc(-n2ccc(=O)c(COc3ccc4ncc(O)cc4c3)n2)cn1` [Example 61, 3-Hydroxy-6-{[1-(1-methyl-1H-pyrazol-4-yl)-4-oxo-1,4-dihydropyridazin-3-yl]methoxy}quinolinium chloride], the IC50 was less than 100 nM.

On to `Cn1cc(-n2ccc(=O)c(COc3ccc4ncc(OCC(C)(C)O)cc4c3)n2)cn1` [Example 62, 3-({[3-(2-Hydroxy-2-methylpropoxy)quinolin-6-yl]oxy}methyl)-1-(1-methyl-1H-pyrazol-4-yl)pyridazin-4(1H)-one], for which the IC50 is less than 100 nM.

In the case of `Cn1cc(-n2ccc(=O)c(COc3ccc4ncc(OC5COC5)cc4c3)n2)cn1` [Example 63, 1-(1-Methyl-1H-pyrazol-4-yl)-3-({[3-(oxetan-3-yloxy)quinolin-6-yl]oxy}methyl)pyridazin-4(1H)-one], the concentration for half-maximal inhibition (IC50) is less than 100 nM.

As to `[2H]C([2H])([2H])C([2H])([2H])Oc1cnc2ccc(OCc3nn(-c4cnn(C)c4)ccc3=O)cc2c1` [Example 64, 3-[({3-[(^2H5)ethyloxy]quinolin-6-yl}oxy)methyl]-1-(1-methyl-1H-pyrazol-4-yl)pyridazin-4(1H)-one], the IC50 is less than 100 nM.

Consider `Cn1cc(-n2ccc(=O)c(COc3ccc4ncc(OCC(F)F)cc4c3)n2)cn1` [Example 65, 3-({[3-(2,2-difluoroethoxy)quinolin-6-yl]oxy}methyl)-1-(1-methyl-1H-pyrazol-4-yl)pyridazin-4(1H)-one], for which the IC50 was less than 100 nM.

As for `Cn1cc(-n2ccc(=O)c(COc3ccc4ncc(OC(F)F)cc4c3)n2)cn1` [Example 66, 3-({[3-(difluoromethoxy)quinolin-6-yl]oxy}methyl)-1-(1-methyl-1H-pyrazol-4-yl)pyridazin-4(1H)-one], the IC50 was less than 100 nM.

Take `CCn1cc(-n2ccc(=O)c(COc3ccc4ncc(Oc5ccccn5)cc4c3)n2)cn1` [Example 67, 1-(1-ethyl-1H-pyrazol-4-yl)-3-({[3-(pyridin-2-yloxy)quinolin-6-yl]oxy}methyl)pyridazin-4(1H)-one]: the IC50 is less than 100 nM.

On to `CCn1cc(-n2ccc(=O)c(COc3ccc4ncc(OCC(F)F)cc4c3)n2)cn1` [Example 68, 3-({[3-(2,2-difluoroethoxy)quinolin-6-yl]oxy}methyl)-1-(1-ethyl-1H-pyrazol-4-yl)pyridazin-4(1H)-one], for which the IC50 was less than 100 nM.

`CCn1cc(-n2ccc(=O)c(COc3ccc4ncc(OC5CCOC5)cc4c3)n2)cn1` (stereo not shown) [Example 69, 1-(1-ethyl-1H-pyrazol-4-yl)-3-({[3-(tetrahydrofuran-3-yloxy)quinolin-6-yl]oxy}methyl)pyridazin-4(1H)-one]: the IC50 was less than 100 nM.

Consider `CCn1cc(-n2ccc(=O)c(COc3ccc4ncc(OCc5noc(C)n5)cc4c3)n2)cn1` [Example 70, 1-(1-ethyl-1H-pyrazol-4-yl)-3-[({3-[(5-methyl-1,2,4-oxadiazol-3-yl)methoxy]quinolin-6-yl}oxy)methyl]pyridazin-4(1H)-one], for which the IC50 was less than 100 nM.

Turning to `Cc1cnc2ccc(OCc3nn(-c4cnn(C)c4)ccc3=O)cc2c1` [Example 71, 1-(1-Methyl-1H-pyrazol-4-yl)-3-{[(3-methylquinolin-6-yl)oxy]methyl}pyridazin-4(1H)-one], the IC50 is less than 100 nM.

A word on the IC50: it is the concentration that inhibits the measured activity by half.
